Assays:
[1] = test system: refractory head and neck tumor; test: Phase I clinical study of CTO, patient with refractory head and neck tumor; assay type: in vivo, human; details: tumor PBKCA, E545K, 285 mg/m2/day
Description: The effectiveness of the CTO treatment is determined by controlled clinical studies. The cancers are evaluated by measuring tumors no more than 14 days before the start of the treatment, and evaluated after 2 cycles of 28 days after day 1 of the administration of the first dose of CTO. The tumor size is measured by the most accurate measurement such as PET-CT, CI scan, MRI scan, x-ray, ultrasound, etc. The criteria for evaluating response are described in the revised Response Evaluation Criteria in Solid Tumors Guidelines, Eisenhauer et al, 1990 and by the Macdonald Criteria for response to high grade gliomas, Macdonald. et al, 1990.
“Progressive disease” is defined as an increase of 25% or greater in the product of the largest perpendicular diameters for at least one bidimensionally measurable tumor, or an increase of 25% or greater at least one undimensionally measurable tumor or appearance of a new lesion or clinical deterioration. […]
“Partial response” means a) for bidimensionally measurable tumors, a decrease of at least 50% in the sum of the products of tire largest perpendicular diameters of all measurable tumors as determined by two observations not less than four weeks apart, b) for undimensionally measurable tumors, a decrease by at least 50% in the sum of the largest diameters of all tumors as determined by two observation not less than four weeks apart. […]

refractory NSCLC = test: Phase I clinical study of CTO, patients with refractory NSCLC; assay type: in vivo, human; details: NSCLC patient; for tumor response measured after two cycles: docetaxel, erlotinib, 28 days
[2] = test system: metastatic colorectal cancer; test: Phase I clinical study of CTO, patient with refractory metastatic colorectal cancer; assay type: in vivo, human; details: 285 mg/m2/day
renal cell carcinoma = test: Phase I clinical study of CTO, patient with refractory renal cell carcinoma; assay type: in vivo, human; details: 75 mg/m2/day
[3] = test system: Akt and Erk1/2 phosphorylation; details: exosomes-stimulated HUVEC cell; cited from earlier work
VEGF = details: cited from earlier work
[4] = test system: imatinib mesylate-resistant chronic myeloid leukemia cells; details: cited from earlier work

NC(=O)c1nnn(Cc2cc(Cl)c(C(=O)c3ccc(Cl)cc3)c(Cl)c2)c1N.O=C(O)c1cc(=O)[nH]c(=O)[nH]1 [CTO, carboxyamidotriazole orotate]
stable disease and partial response registered for [1]: more than six | tumor response measured after two cycles ([1]; prior cetuximab, cisplatin, taxotere, 28 days, two cycles): responded by not progressing | stable disease and partial response registered for (refractory NSCLC; tumor EGFR, ELREATS 746-752 V (exon 19), 219 mg/m2/day): more than twelve | tumor response measured after two cycles (refractory NSCLC; tumor EGFR, ELREATS 746-752 V (exon 19), prior carboplatin, paclitaxel, cisplatin, gemcitamide, premetrexed, 219 mg/m2/day): responded by not progressing | stable disease and partial response registered for (refractory NSCLC; tumor PI3KCA, E545K, 219mg/m2/day): more than twelve | tumor response measured after two cycles (refractory NSCLC; tumor PI3KCA, E545K, prior paclitaxel, carboplatin, 219mg/m2/day): responded by not progressing | tumor response measured after two cycles ([2]; tumor BRAF V660E, prior leucovorin, fluorouracil, oxaliplatin, bevacizumab, cetuximab, capecitabine, panitumumab, irinotecan, 28 days, two cycles): responded to CTO by not progressing | stable disease and partial response registered for ([2]; tumor): six | stable disease and partial response registered for (renal cell carcinoma; CTO continued): over twelve | tumor response measured after two cycles (renal cell carcinoma; prior IL-2, pegylated IFN, sorafenib, sunitnib, erlotinib, torisel, 28 days, two cycles): responded by not progressing | effect on Akt and Erk1/2 phosphorylation [3]: inhibits Akt and Erk1/2 phosphorylation

NC(=O)c1nnn(Cc2cc(Cl)c(C(=O)c3ccc(Cl)cc3)c(Cl)c2)c1N [CAI, Carboxyamidotriazole]
effect on VEGF expression and secretion (VEGF): inhibits VEGF expression, and secretion | apoptosis by down-regulating bcr-abl [4]: induces apoptosis
